Reference: US3947456A, “Substituted 4-phenyl isoquinolines” (Hoffman-La Roche Inc., priority 1970, dated 1976)
Read-outs that look alike come from different tables or passages of the source.

Experiments:
rats = assay: Anti-depressant activity: antagonism of symptoms induced by 2-ethyl-2-hydroxy-3-isobutyl-9,10-dimethoxy-1,3,4,6,7,11b-hexahydro-2H-benzo (a) quinolizine hydrochloride (motility, sensitivity to stimulus, seeking behavior, suppression of ptosis); format: in vivo; settings: 3 doses of 50 mg/kg p.o., benzoquinolizine 20 mg/kg s.c. 6 h after last dose, amitriptyline = 100 percent
Experimental: The compounds of formula I above and their pharmaceutically acceptable salts are extremely effective and active as anti-depressant agents. Their useful anti-depressant activity is shown in warm-blooded animals utilizing standard test procedures. […] Six hours after the last administration the animals received 20 mg/kg of 2-ethyl-2-hydroxy-3-isobutyl-9,10-dimethoxy-1,3,4,6,7,11b-hexahydro-2H-benzo (a) quinolizine hydrochloride injected subcutaneously. The same dosage was administered to a group of 5-non-pretreated rats. The evaluation includes central and peripheral symptoms such as are characteristic for anti-depressants (See Annals of the New York Academy of Science, Vol. 96, page 279, 1962). Especially observed were the motility (climbing), sensitivity to stimulus, seeking behavior as well as the suppression of ptosis. These changes were expressed in numbers according to an evaluation scheme.
The percentage numbers stated relate to the value obtained with amitriptyline (amitriptyline = 100 percent).

[1] = Acute toxicity (LD50), 24 hour values; settings: mouse, in vivo, mice, 24 hour value
Experimental: The low toxicity of the compounds of formula I is also illustrated by the acute toxicity (LD50) of the compounds set out in Table I. The figures set forth in Table I as to acute toxicity refer to toxicity tests performed in mice and are the 24 hour values.

SMILES | Activity in % of the activity of amitriptyline (rats) | LD50 at 24 h ([1]; iv, i.v., read-out: LD50 i.v.) | LD50 at 24 h ([1]; po, p.o., read-out: LD50 p.o.) | LD50 at 24 h ([1]; sc, s.c., read-out: LD50 s.c.)
CN1Cc2cc(O)ccc2C(c2ccc(Cl)c(Cl)c2)C1 (stereo not drawn) [4-(3,4-dichlorophenyl)-1,2,3,4-tetrahydro-2-methyl-7-isoquinolinol] | about 158% | 30 to 60 mg/kg | 500 to 1000 mg/kg | 250 to 500 mg/kg
COc1ccc2c(c1)CN(C)CC2c1ccc(Cl)c(Cl)c1 (stereo not drawn) [4-(3,4-dichlorophenyl)-1,2,3,4-tetrahydro-7-methoxy-2-methylisoquinoline] | about 128% | 125 to 250 mg/kg | 1000 to 2000 mg/kg | 500 to 1000 mg/kg
CN1Cc2cc(O)ccc2C(c2ccc(Cl)cc2)C1 (stereo not drawn) [4-(4-chlorophenyl)-1,2,3,4-tetrahydro-2-methyl-7-isoquinolinol] | about 114% | 30 to 60 mg/kg | 1000 to 2000 mg/kg | 500 to 1000 mg/kg
